# Data reported in patent publication US20240051930A1, “HETEROAROMATIC SPERMIDINE ANALOGUES AND THEIR ANTICANCER ACTIVITY” (FLORATEK PHARMA S.A., priority 2021, published 2024).
# Columns and labels:
# Assay type in all cases: cell-based
# Daudi cells = assay: CellTiter-Glow cell viability, lymphoma Daudi; conditions: Homo sapiens, 72 h, read-out: % Inh @2 μM Daudi
# Description: (§1) Antitumor activity of the compounds and cisplatin as a positive control was assessed by using CellTiter-Glow® Luminescent Cell Viability assay (Promega #G7572) according to the manufacturer's instructions. The compounds were tested at 2 concentrations, 2 and 20 μM, in triplicate well conditions.
# (§2) Tumor cells were grown at 37° C. in a humidified atmosphere with 5% CO2 in RPMI 1640 or DMEM medium, supplemented with 10% (v/v) fetal calf serum and 50 μg/ml gentamicin for up to 20 passages, and were passaged once or twice weekly. Cells were harvested using TrypLE or PBS buffer containing 1 mM EDTA, and the percentage of viable cells is determined using a cell counter.
# (§3) Cells were harvested from exponential phase cultures, counted and plated in 96 well flat-bottom microtiter plates at a cell density depending on the cell line's growth rate (4,000-20,000 cells/well depending on the cell line's growth rate, up to 60,000 for hematological cancer cell lines) in RPMI 1640 or DMEM medium supplemented with 10% (v/v) fetal calf serum and 50 μg/ml gentamicin (140 μl/well). Cultures were incubated at 37° C. and 5% CO2 in a humidified atmosphere. After 24 h, 10 μl of test compounds or control medium are added and left on the cells for another 72 h.
# (§4) Compounds were serially diluted in DMSO, transferred in cell culture medium, and added to the assay plates. The DMSO concentration was kept constant at <0.2% v/v across the assay plate. Viability of cells was quantified by CellTiter-Glow® Luminescent Cell Viability assay (Promega). Luminescence was measured with the microplate luminometer (EnVision Multi Label Reader).
# NCI-H292 cells = assay: CellTiter-Glow cell viability, lung carcinoma NCI-H292; conditions: Homo sapiens, 72 h, read-out: % Inh @2 μM NCI-H292
# Description: as §1, §2, §3, §4
# A673 cells = assay: CellTiter-Glow cell viability, Ewings sarcoma A673; conditions: Homo sapiens, 72 h, read-out: % Inh @2 μM A673
# Description: as §1, §2, §3, §4
# A375 cells = assay: CellTiter-Glow cell viability, melanoma A375; conditions: for inhibition at 2 µM: Homo sapiens, A-375, 72 h, read-out: % Inh @2 μM A375
# Description: as §1, §2, §3, §4
# H118MG cells = assay: CellTiter-Glow cell viability, brain carcinoma cells H118MG; conditions: 72 h, read-out: growth inhibition of brain carcinoma cells H118MG
# Description: as §1, §2
# as §3, with “Cultures were incubated at 37° C. and 5% CO2 in a humidified atmosphere. After 24 h, 10 μl of test compounds or control medium are added and left on the cells for another 72 h.” left out
# (§5) Compounds were serially diluted in DMSO, transferred in cell culture medium, and added to the assay plates. […] Viability of cells was quantified by CellTiter-Glow® Luminescent Cell Viability assay (Promega). Luminescence was measured with the microplate luminometer (EnVision Multi Label Reader).
# A2058 cells = assay: CellTiter-Glow cell viability, melanoma A2058; conditions: for inhibition at 2 µM: Homo sapiens, A2058, 72 h, read-out: % Inh @2 μM A2058
# Description: as §1, §2, §3, §4
# NAWALMA cells = assay: CellTiter-Glow cell viability, lymphoma NAWALMA; conditions: 72 h, read-out: % Inh @2 μM NAWALMA
# Description: as §1, §2, §3, §4
# DMS114 cells = assay: CellTiter-Glow cell viability, lung carcinoma DMS114; conditions: Homo sapiens, DMS-114, 72 h, read-out: growth inhibition of lung carcinoma cells DMS114
# Description: as §1, §2
# as §3, with “Cultures were incubated at 37° C. and 5% CO2 in a humidified atmosphere. After 24 h, 10 μl of test compounds or control medium are added and left on the cells for another 72 h.” left out
# as §5
# MeWo cell line = assay: CellTiter-Glow cell viability, melanoma MeWo; conditions: Homo sapiens, 72 h, read-out: growth inhibition of MeWo cell line
# Description: as §1, §2
# as §3, with “Cultures were incubated at 37° C. and 5% CO2 in a humidified atmosphere. After 24 h, 10 μl of test compounds or control medium are added and left on the cells for another 72 h.” left out
# as §5
# SK-N-SH cells = assay: CellTiter-Glow cell viability, brain carcinoma SK-N-SH; conditions: Homo sapiens, 72 h, read-out: % Inh @2 μM SK-N-SH
# Description: as §1, §2, §3, §4
# K562 cells = assay: CellTiter-Glow cell viability, leukemia K562; conditions: Homo sapiens, 72 h, read-out: % Inh @2 μM K562
# Description: as §1, §2
# as §3, with “Cultures were incubated at 37° C. and 5% CO2 in a humidified atmosphere. After 24 h, 10 μl of test compounds or control medium are added and left on the cells for another 72 h.” left out
# as §5
# SK-Mel-5 cell line = assay: CellTiter-Glow cell viability, melanoma SK-Mel-5; conditions: for inhibition at 2 µM: Homo sapiens, SK-MEL-5, 72 h, read-out: % Inh @2 μM SK-Mel-5
# Description: as §1, §2, §3, §4
# HCT116 cells = assay: CellTiter-Glow cell viability, colon carcinoma HCT116; conditions: Homo sapiens, HCT-116, 72 h, read-out: % Inh @2 μM HCT116
# Description: as §1, §2
# as §3, with “Cultures were incubated at 37° C. and 5% CO2 in a humidified atmosphere. After 24 h, 10 μl of test compounds or control medium are added and left on the cells for another 72 h.” left out
# as §5
# U937 cell line = assay: CellTiter-Glow cell viability, leukemia U937; conditions: Homo sapiens, U-937, 72 h, read-out: growth inhibition of U937 cell line
# Description: as §1, §2
# as §3, with “Cultures were incubated at 37° C. and 5% CO2 in a humidified atmosphere. After 24 h, 10 μl of test compounds or control medium are added and left on the cells for another 72 h.” left out
# as §5
# SH-SY-5Y cells = assay: CellTiter-Glow cell viability, brain carcinoma SH-SY-5Y; conditions: Homo sapiens, SH-SY5Y, 72 h, read-out: % Inh @2 μM SH-SY-5Y
# Description: as §1, §2
# as §3, with “Cultures were incubated at 37° C. and 5% CO2 in a humidified atmosphere. After 24 h, 10 μl of test compounds or control medium are added and left on the cells for another 72 h.” left out
# as §5
SMILES,inhibition at 2 µM (Daudi cells),inhibition at 2 µM (NCI-H292 cells),inhibition at 2 µM (A673 cells),inhibition at 2 µM (A375 cells),inhibition at 2 µM (A2058 cells),inhibition at 2 µM (NAWALMA cells),inhibition at 2 µM (SK-N-SH cells),inhibition at 2 µM (SK-Mel-5 cell line),other results
COc1c(O)ccc2c(=O)c(O)c(-c3ccc(N(C)CCCCN(C)CCC4CCN(Cc5ccccc5)CC4)cc3)oc12 [SND437],59.4%,71.6%,99.6%,69.5%,97.3%,80.8%,96.4%,99.7%,inhibition at 2 µM (H118MG cells): 97.6%; inhibition at 2 µM (DMS114 cells): 98%; inhibition at 2 µM (MeWo cell line): 93.2%; inhibition at 2 µM (K562 cells): 65.3%; inhibition at 2 µM (HCT116 cells): 83.7%
COc1c(O)ccc2c(=O)c(O)c(-c3ccc(N(C)CCCCN(C)CCN4CCN(Cc5ccccc5)CC4)cc3)oc12 [SND438],50%,51.9%,55.6%,55.5%,72.1%,65.3%,53.5%,61.1%,% Inh @2 μM A375 (A375 cells; 72 h): 60.8%; % Inh @2 μM A2058 (A2058 cells; 72 h): 78.2%; % Inh @2 μM SK-Mel-5 (SK-Mel-5 cell line; 72 h): 50.7%
COc1c(O)ccc2c(=O)c(O)c(-c3ccc(N(C)CCCCN(C)CCCN4CCCCC4)cc3)oc12 [SND439],57.4%,62.6%,80.8%,–,–,73.4%,57.5%,–,–
COc1c(O)ccc2c(=O)c(O)c(-c3ccc(N(C)CCCCNCCCNCCCCN)cc3)oc12 [SND445],–,–,61.8%,–,–,–,–,–,–
COc1c(O)ccc2c(=O)c(O)c(-c3ccc(N(C)CCCCNCCCN)cc3)oc12 [SND446],82%,–,–,–,–,75.5%,–,56.5%,inhibition at 2 µM (U937 cell line): 58%; inhibition at 2 µM (SH-SY-5Y cells): 55.8%
COc1c(-c2ccc(N(C)CCCCN(C)CCCN3CCCCC3)cc2)oc2c(OC)c(O)ccc2c1=O [SND459],–,–,63.5%,–,–,–,–,–,–
